Broadly, the IC50 is the concentration that inhibits the measured activity by half.

One experiment has as its target T1, Renin (Homo sapiens, UniProt P00797).
T1 sequence (P00797 whole entry): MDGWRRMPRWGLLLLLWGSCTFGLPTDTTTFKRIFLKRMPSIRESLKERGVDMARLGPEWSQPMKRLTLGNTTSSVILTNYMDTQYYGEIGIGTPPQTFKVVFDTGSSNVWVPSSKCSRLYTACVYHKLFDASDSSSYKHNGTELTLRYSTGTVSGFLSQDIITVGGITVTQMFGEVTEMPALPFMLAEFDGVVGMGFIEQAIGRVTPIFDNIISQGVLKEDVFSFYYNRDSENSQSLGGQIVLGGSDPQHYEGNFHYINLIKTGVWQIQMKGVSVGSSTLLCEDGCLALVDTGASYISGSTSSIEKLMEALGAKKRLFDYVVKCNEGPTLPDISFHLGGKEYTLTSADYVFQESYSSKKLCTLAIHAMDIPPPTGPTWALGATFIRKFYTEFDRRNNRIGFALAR
As to the kind of experiment: In vitro inhibitory activity against renin from lyophilized human plasma. The experiment is classed as cell-free.

The target in the next experiment is T2, Renin (Homo sapiens) (UniProt P00797).
T2 sequence (whole entry): T1 sequence (P00797 whole entry)
Kind of experiment: Inhibitory potency against renin relative to H-Pro-His-Pro-Phe-His-Phe-Phe-Val-Tyr-D-Lys-OH peptide.

Regarding `CC[C@@H](C)[C@H](NC(=O)/C=C/[C@H](CC(C)C)NC(=O)[C@H](Cc1cnc[nH]1)NC(=O)[C@H](Cc1ccccc1)NC(=O)[C@H]1CCCN1C(=O)[C@H](Cc1cnc[nH]1)NC(=O)[C@H]1CCCN1)C(=O)N[C@@H](Cc1cnc[nH]1)C(=O)N[C@H](CCCCN)C(=O)O`, at Renin, inhibition was half-maximal at 6.2 µM (IC50).

Take `CC[C@@H](C)[C@H](NC(=O)[C@@H](SC[C@H](CC(C)C)NC(=O)[C@H](Cc1c[nH]cn1)NC(=O)[C@H](Cc1ccccc1)NC(=O)[C@H]1CCCN1C(=O)[C@H](Cc1c[nH]cn1)NC(=O)[C@H]1CCCN1)C(C)C)C(=O)N[C@@H](Cc1c[nH]cn1)C(=O)N[C@H](CCCCN)C(=O)O`: half-maximal inhibition at Renin (IC50) was put at 6 µM. At Renin (Homo sapiens), this molecule had a Relative potency of 1.6.

For the molecule `CC(C)[C@H](NC(=O)[C@H](Cc1ccccc1)NC(=O)[C@H](Cc1ccccc1)NC(=O)[C@H](Cc1cnc[nH]1)NC(=O)[C@H](Cc1ccccc1)NC(=O)[C@H]1CCCN1C(=O)[C@H](Cc1cnc[nH]1)NC(=O)[C@H]1CCCN1)C(=O)N[C@@H](Cc1ccc(O)cc1)C(=O)N[C@H](CCCCN)C(=O)O`, on Renin, the IC50 came to 10 µM.

At Renin, `CC[C@@H](C)[C@H](NC(=O)[C@@H](NC[C@H](CC(C)C)NC(=O)[C@H](Cc1c[nH]cn1)NC(=O)[C@H](Cc1ccccc1)NC(=O)[C@H]1CCCN1C(=O)[C@H](Cc1c[nH]cn1)NC(=O)[C@H]1CCCN1)C(C)C)C(=O)N[C@@H](Cc1c[nH]cn1)C(=O)N[C@H](CCCCN)C(=O)O` had an IC50 of 0.049 µM. This molecule had a Relative potency at Renin (Homo sapiens) of 200.

`CC(C)[C@H](NC(=O)[C@H](Cc1ccccc1)NC(=O)[C@H](Cc1ccccc1)NC(=O)[C@H](Cc1c[nH]cn1)NC(=O)[C@H](Cc1ccccc1)NC(=O)[C@H]1CCCN1C(=O)[C@H](Cc1c[nH]cn1)NC(=O)[C@H]1CCCN1)C(=O)N[C@@H](Cc1ccc(O)cc1)C(=O)N[C@H](CCCCN)C(=O)O` came in with a Relative potency at Renin (Homo sapiens) of 1.

The molecule `CC[C@@H](C)[C@H](NC(=O)/C=C/[C@H](CC(C)C)NC(=O)[C@H](Cc1c[nH]cn1)NC(=O)[C@H](Cc1ccccc1)NC(=O)[C@H]1CCCN1C(=O)[C@H](Cc1c[nH]cn1)NC(=O)[C@H]1CCCN1)C(=O)N[C@@H](Cc1c[nH]cn1)C(=O)N[C@H](CCCCN)C(=O)O` had a Relative potency at Renin (Homo sapiens) of 1.6.

As to `CC[C@@H](C)[C@H](NC(=O)[C@H](Cc1ccccc1)NC(=O)[C@H](Cc1ccccc1)NC(=O)[C@H](Cc1cnc[nH]1)NC(=O)[C@H](Cc1ccccc1)NC(=O)[C@H]1CCCN1C(=O)[C@H](Cc1cnc[nH]1)NC(=O)[C@H]1CCCN1)C(=O)N[C@@H](Cc1cnc[nH]1)C(=O)N[C@H](CCCCN)C(=O)O`, the IC50 on Renin worked out at 170 µM.

On to `CC[C@@H](C)[C@H](NC(=O)[C@H](C(C)C)[S+]([O-])C[C@H](CC(C)C)NC(=O)[C@H](Cc1c[nH]cn1)NC(=O)[C@H](Cc1ccccc1)NC(=O)[C@H]1CCCN1C(=O)[C@H](Cc1c[nH]cn1)NC(=O)[C@H]1CCCN1)C(=O)N[C@@H](Cc1c[nH]cn1)C(=O)N[C@H](CCCCN)C(=O)O` (some centres not stated), for which half-maximal inhibition against Renin (IC50) required 2.5 µM. Further, the Relative potency on Renin (Homo sapiens) stood at 4.

On Renin (Homo sapiens), `CC[C@@H](C)[C@H](NC(=O)[C@H](Cc1ccccc1)NC(=O)[C@H](Cc1ccccc1)NC(=O)[C@H](Cc1c[nH]cn1)NC(=O)[C@H](Cc1ccccc1)NC(=O)[C@H]1CCCN1C(=O)[C@H](Cc1c[nH]cn1)NC(=O)[C@H]1CCCN1)C(=O)N[C@@H](Cc1c[nH]cn1)C(=O)N[C@H](CCCCN)C(=O)O` had a Relative potency of 0.6.

Source of the values: ChEMBL document CHEMBL1124153, “Synthesis and renin inhibitory activity of angiotensinogen analogues having dehydrostatine, Leu psi [CH2S]Val, or Leu psi [CH2SO]Val at the P1-P1' cleavage site” (J Med Chem, 1988).
